{"source": "patent US10370436B2", "about": "“Anti-pseudomonas Psl binding molecules and uses thereof” (priority 2011, dated 2019)", "test_system": "PAO1ΔpslA", "assay": "OPK assay, Psl-deficient PAO1ΔpslA and complemented strain", "type": "cell-based, Pseudomonas aeruginosa", "details": "complemented PAO1ΔpslA in contrast to the mutant; FIGS. 3F, 3G", "procedure": "This example describes the evaluation of prioritized human IgG1 antibodies to promote OPK of P. aeruginosa. […] OPK assays were performed as described in (DiGiandomenico, A., et al., Infect Immun 72, 7012-7021 (2004)), with modifications. Briefly, assays were performed in 96-well plates using 0.025 ml of each OPK component; P. aeruginosa strains; diluted baby rabbit serum; differentiated HL-60 cells; and monoclonal antibody. In some OPK assays, luminescent P. aeruginosa strains, which were constructed as described (Choi, K. H., et al., Nat Methods 2, 443-448 (2005)), were used. Luminescent OPK assays were performed as described above but with determination of relative luciferase units (RLUs) using a Perkin Elmer ENVISION Multilabel plate reader (Perkin Elmer). […]\nThis example describes two series of experiments evaluating the ability of PMB-mAb conjugates to promote OPK of P. aeruginosa. In the first experiments (FIGS. 15A-B), conjugate-mediated OPK activity by human HL-60 neutrophil cell line in the presence of rabbit complement was evaluated using P. aeruginosa strains expressing bacterial luciferase as described in Example 2. […] In the second series of experiments, reduction in luminescence following 2 h incubation relative to control lacking mAb was used to determine % killing."}
{"substance": "Cam-003: human IgG1 anti-Psl monoclonal antibody, VH SEQ ID NO: 1 and VL SEQ ID NO: 2", "values": [{"measurement": "ability to mediate opsonic killing", "value": "restored"}]}
